Measurements taken from patent publication US20150064200A1, “METHODS AND COMPOSITIONS FOR 6-PHOSPHOGLUCONATE DEHYDROGENASE (6-PGD) AS A TARGET FOR LUNG CANCER THERAPY” (BETH ISRAEL DEACONESS MEDICAL CENTER, INC., priority 2012, published 2015).
“And” between values parts separate entries of the source, which are not always exact repeats. Equal entries are not always repeated.

Experiments:
[1] = system: H1975 cells; test: H1975 xenograft tumor growth in nude mice; format: in vivo; conditions: H1975 cells induced with doxycycline, subcutaneous in nude mice, tumors weighed after 18 days
From the text: We sought to test whether 6-PGD knockdown would inhibit tumor growth in a xenograft model. Control shRNA-, 6-PGD shRNA1, and 6-PGD shRNA2-H1975 cells were induced with doxycycline in vitro for three days prior to subcutaneous injection into nude mice. Mice were fed with doxycycline supplemented in drinking water. Tumors were excised after 18 days and weighed.

[2] = system: 6-PGD; test: Western blot of 6-PGD expression after inducible shRNA knockdown; format: cell-based, human; conditions: H1975 cells
From the text: (§1) To test the functional role of 6-PGD in human non small cell lung carcinoma (NSCLC), we used H1975 cells as our model system (FIG. 2A). These adenocarcinoma cells harbor two mutations in the EGFR (L858R/T790M) and are widely used to study the mechanism and treatment of gefitinib/erlotinib-resistant lung cancer cells. We chose to use an inducible shRNA system to knock down 6-PGD expression. Three nonoverlapping shRNAs were chosen in these experiments. […] Importantly, 6-PGD expression knockdown caused a substantial decrease in cell proliferation. To further corroborate the involvement of 6-PGD in NSCLC proliferation in vitro, we performed expression rescue experiments (FIG. 2B). H1975 cells expressing control shRNA or 6-PGD shRNA1 were transduced by either empty- or mouse-6PGD retrovirus. […] Overexpression of mouse 6-PGD alone enhanced H1975 cell growth. […] Our result confirmed that the growth inhibition was due to 6-PGD knockdown and not a non-specific artifact of the shRNA.

[3] = system: H1975 cells; test: Cell proliferation of H1975 cells upon knockdown; format: cell-based, human; conditions: 6-PGD knockdown
From the text: as §1
The dramatic decrease in cell proliferation when 6-PGD was knocked down implies that the oxidative branch of the pentose phosphate pathway (PPP) could be indispensable for cell growth. […] To address this discrepancy, we next knocked down G6PD by transient siRNA transfection in H1975 cells. […] Therefore, the dramatic growth inhibition observed when 6-PGD was knocked down was not simply a result of PPP blockade. […]

[4] = system: senescence-associated beta galactosidase (SA-β-GAL) activity; test: Senescence-associated beta galactosidase (SA-β-GAL) staining and chromogenic assay; format: cell-based, human; conditions: cells with 6-PGD knockdown
From the text: We noticed that the cells with 6-PGD knocked down were enlarged and flattened-shapes characteristic of cells undergoing senescence. We therefore stained the cells for senescence-associated beta galactosidase (SA-β-GAL) activity. Because shRNA1 and shRNA2 had the most dramatic effects on 6-PGD expression and cell proliferation, we opted to test these two shRNAs in these experiments. […] Therefore, we concluded that suppression of 6-PGD induces cellular senescence in these cancer cells.
We tested whether the use of glucose or fructose in the medium might influence the phenotypic outcome of 6-PGD suppression. Fructose can be used to generate glycolytic metabolites via different pathways. For example, in the liver, fructose can be phosphorylated by fructokinase to yield fructose-1-phosphate and ultimately glyceraldehyde-3-phosphate to re-enter glycolysis. Fructose can also enter glycolysis when phosphorylated by hexokinase to become fructose-6-phosphate. We reasoned that if H1975 could metabolize fructose by these mechanisms, cells grown in fructose without glucose would likely be devoid of glucose-6-phosphate, bypassing the oxidative branch of the PPP. This scenario may be similar to the PPP shutdown by means of G6PD depletion. H1975 cells were treated with doxycycline to induce 6-PGD knockdown in 2 g/L fructose (no glucose). […]

[5] = system: p53; test: Western blot of p53 expression in cells with 6-PGD knockdown; format: cell-based, human; conditions: H1975 cells
From the text: One of the main mechanisms for cellular senescence induction is the p53 pathway. Therefore we hypothesized that p53 expression might be increased in cells with 6-PGD knockdown.

[6] = system: H1975 cells; test: Metabolite levels by mass spectrometry upon 6-PGD knockdown; format: cell-based, human; conditions: H1975, doxycycline three days, vs control shRNA
Experimental: Both control- and 6-PGD shRNA1-expressing H1975 cells were treated with doxycycline for three days. Metabolites were extracted for analysis by mass spectrometry. Results are grouped according to metabolic pathways (Table 5). […] Specifically, as might be expected, 6-phospho-D-gluconate and D-glucono-δ-lactone-6-phosphate levels were up by 11 and 7.9 fold, respectively. Direct determination of the effects in the non-oxidative branch was more difficult, as levels of some key intermediates such as xylulose-5-phosphate and D-sedo-heptulose-7-phosphate were not determined in our mass spectrometric analysis. However, there was no change in the level of total ribose phosphates, downstream products of the PPP. Importantly, levels of all the triphosphate nucleotides essential for DNA and RNA synthesis were essentially unchanged. […] Glycolysis also appeared to be affected by 6-PGD knockdown. Both glucose-6-phosphate and fructose-6-phosphate levels were increased, perhaps due to a backlog in the PPP. […] We believe that these intermediates were shunted to the non-oxidative PPP via the transketolase reactions using glyceraldehyde-3-phosphate as the entry point. These transketolase reactions would compensate for the blockade at 6-PGD and provide a carbon source for ribose phosphate production and maintenance of dNTP/NTP levels. […] In particular NADPH level was determined by this metabolomic analysis to be also unchanged by 6-PGD knockdown, consistent with result obtained by the colorimetric assay (FIG. 5A).

[7] = system: mouse 6-PGD; test: Western blot of exogenous mouse 6-PGD expression in rescue experiment; format: cell-based; conditions: H1975 cells transduced with mouse-6PGD retrovirus, doxycycline induction
From the text: as §1

[8] = system: H1975 cells; test: Oxygen consumption rate (OCR); format: cell-based, human
From the text: We suspected that upon 6-PGD knockdown, these cells might have maintained NADPH level by enhanced glutaminolysis, another major mechanism for NADPH production. We therefore examined the rate of oxygen consumption of these cells, as NADPH production via glutaminolysis requires oxygen.

Substance: shRNA1: 6-PGD specific shRNA from Open Biosystems, Oligo ID V3LHS_381993, mature sequence AGU UUG AUG GUG AUA AGA A (guide AGUUUGAUGGUGAUAAGAA; shRNA hairpin; mature sequence only)
- tumor growth [1]: significantly retarded tumor growth
- expression of 6-PGD [2]: most effective
- cell proliferation [3]: significantly blocked proliferation
- number of cells positive for SA-β-GAL staining [4]: significantly increased
- p53 expression [5]: significantly upregulated
- Fold Change Glutamate ([6]; Glutamine/Glutamate): −1.1 fold
- Fold Change Glutamine ([6]; Glutamine/Glutamate): −1.1 fold
- Fold Change 1,3-Diphopshateglycerate ([6]; Glycolysis): 0.0 fold
- Fold Change 3-Phosphoglycerate ([6]; Glycolysis): −2.1 fold
- Fold Change D-Glyceraldehdye-3-phosphate ([6]; Glycolysis): −3.8 fold
- Fold Change Dihyroxyacetone-phosphate ([6]; Glycolysis): −5.9 fold
- Fold Change Fructose-1,6-bisphosphate ([6]; Glycolysis): −4.6 fold
- Fold Change Fructose-6-phosphate ([6]; Glycolysis): 1.4 fold
- Fold Change Glucose-6-phosphate ([6]; Glycolysis): 1.8 fold
- Fold Change Lactate ([6]; Glycolysis): −1.2 fold
- Fold Change Phosphoenolpyruvate ([6]; Glycolysis): −2.8 fold
- Fold Change Pyruvate ([6]; Glycolysis): 1.3 fold
- Fold Change ATP ([6]; NTPs/dNTPs): 1.2 fold
- Fold Change CTP ([6]; NTPs/dNTPs): 1.0 fold
- Fold Change GTP ([6]; NTPs/dNTPs): 1.5 fold
- Fold Change UTP ([6]; NTPs/dNTPs): 1.2 fold
- Fold Change dATP ([6]; NTPs/dNTPs): −1.1 fold
- Fold Change dCTP ([6]; NTPs/dNTPs): 1.0 fold
- Fold Change dGTP ([6]; NTPs/dNTPs): 1.2 fold
- Fold Change dTTP ([6]; NTPs/dNTPs): −1.2 fold
- Fold Change D-Glucono-δ-lactone-6-phosphate ([6]; PPP): 7.9 fold
- Fold Change Ribose-phosphate ([6]; PPP): 1.2 fold
- Fold Change 6-Phospho-D-gluconate ([6]; PPP, listed as 6-PGD shRNA1): 11 fold and 11.0 fold
- Fold Change Glutathione ([6]; REDOX): −1.3 fold
- Fold Change Glutathione disulfide ([6]; REDOX): 1.0 fold
- Fold Change NAD+ ([6]; REDOX): 1.2 fold
- Fold Change NADH ([6]; REDOX): −1.5 fold
- Fold Change NADP+ ([6]; REDOX): 1.3 fold
- Fold Change NADPH ([6]; REDOX): −1.1 fold
- Fold Change Acetyl-CoA ([6]; TCA): 1.6 fold
- Fold Change Citrate ([6]; TCA): 1.1 fold
- Fold Change Fumarate ([6]; TCA): 1.0 fold
- Fold Change Isocitrate ([6]; TCA): −1.1 fold
- Fold Change Malate ([6]; TCA): −1.3 fold
- Fold Change Oxaloacetate ([6]; TCA): −1.1 fold
- Fold Change Succinate ([6]; TCA): −1.3 fold
- Fold Change α-Ketoglutarate ([6]; TCA): −1.2 fold
- expression of mouse 6-PGD [7]: without affecting the expression of mouse 6-PGD
- oxygen consumption rate (OCR) [8]: significant increase

Substance: shRNA2: 6-PGD specific shRNA from Open Biosystems, Oligo ID V3LHS_381995, mature sequence AGG ACU GUC UCC AAA GUU G (guide AGGACUGUCUCCAAAGUUG; shRNA hairpin; mature sequence only)
- tumor growth [1]: significantly retarded tumor growth
- expression of 6-PGD [2]: most effective
- number of cells positive for SA-β-GAL staining [4]: significantly increased
- p53 expression [5]: significantly upregulated
- oxygen consumption rate (OCR) [8]: significant increase
